Experimental findings from patent US20230320345A1, “METHODS AND COMPOSITIONS FOR INHIBITING ICE RECRYSTALLIZATION” (UNIVERSITY OF TENNESSEE RESEARCH FOUNDATION, priority 2022, published 2023) are described below.

Values joined by “and” are separate entries in the source; they are usually repeats but may differ in a detail not shown here. Identical values can stand only once. “Also recorded” adds a separate entry of the source.

Series [1] is described as follows: Atomic force microscopy (AFM) analysis of bile salt solutions. It is filed as physicochemical. Particulars: 25 mM sample, dried on mica. The procedure: Atomic force microscopy (AFM) analysis of bile salt solutions. The AFM procedure was followed as set forth in Schefer, L.; Adamcik, J.; Diener, M.; Mezzenga, R., “Supramolecular chiral self-assembly and supercoiling behavior of carrageenans at varying salt conditions,” Nanoscale 2015, 7 (39), 16182-16188, which is incorporated herein by reference. Briefly, 0.01% (v/v) APTES in water was incubated on a freshly peeled mica surface for 1 min. APTES solution was then washed away using water on a P6700 spin coater from Specialty Coating Systems Inc., Indianapolis, IN, at 2,000 rpm. About 200 µL of 25 mM sample was loaded on the mica surface and incubated for 30 seconds. Then the mica was rinsed with 1.0 mL water drop-wise and dried in a vacuum chamber at room temperature. All mica surfaces were observed by a Multimode VIII AFM from Bruker, Santa Barbara, USA, in ScanAsyst-Air mode. All images were flattened using Nanoscope Analysis software from Bruker, Santa Barbara, USA, before analyzing by an ImageJ instrument from National Institutes of Health, Bethesda, MD.

A short description of series [2]: Optical photos of bile salt solutions as a function of temperature, with crossed polarized filters. It is filed as physicochemical. The following applies: 25 mM in PBS; for appearance of solution: temperatures from 90° C. to -15° C.; for liquid crystal phase: all temperatures, crossed polarized filter. The procedure: (§1) Viscosity profiles, critical micelle concentration (CMC), and optical photos of bile salts. The critical micelle concentration of a colloid or surfactant is the concentration of surfactant above which micelles form, and any additional surfactant added to the system will form micelles. The viscosity profile of NaC, NaDC, NaCC, and NaLC at a concentration of 25 mM in 1x PBS were determined by an AR2000 rheometer from TA Instruments in New Castle, PA, with a 40 mm aluminum parallel plate at 25° C. The samples were measured from 0.1 to100 s^-1 shear rate after pre-shearing at 50 s^-1 for 30 seconds with or without an equilibrium time of 30 min. The CMCs were determined by a UV-vis spectroscopy method with slight modifications described in Reis, S.; Moutinho, C. G.; Matos, C.; de Castro, B.; Gameiro, P.; Lima, J. L., “Noninvasive methods to determine the critical micelle concentration of some bile acid salts,” Anal Biochem 2004, 334 (1), 117-26, which is incorporated herein by reference. NaC, NaDC, and NaCC were dissolved in water at concentrations from 1 to 25 mM. The absorbance spectra from 200 to 300 nm were collected by an Evolution 201 spectrometer from Thermo Scientific, Waltham, MA to find the peak absorbance. The CMC was determined from the sudden change of peak absorbance as concentration increases. The optical photos of bile salt in 1X PBS solutions were taken after incubation at each designed temperature for 20 minutes.

Series [3] can be described thus: Ice growth kinetics of NaLC. The following applies: 1x PBS, -8° C., up to 60 min. The procedure:
Ice growth kinetics of NaLC. The ice growth kinetics in the presence of NaLC at 12.5, 25, and 50 mM was determined at -8° C. in 1x PBS. Five pictures were taken every 5 min for a total time of 60 min. %MLGS at each time was calculated against its blank control at the same time.

The nature of series [4]: Ice recrystallization inhibition (IRI) "splat" assay. Particulars: for IRI activity: splat assay, 30 min incubation at -8° C., 12.5-100 mM; for %MLGS compared with PEG: at 40 mg/mL. The procedure:
Ice recrystallization inhibition (IRI) activity of bile salts. NaC, NaDC, NaCC, and NaLC were tested for IRI activity at concentrations of 12.5, 25.0, 50.0, and 100 mM in 1x PBS using the “splat” assay test known and described in Knight, C. A.; Hallett, J.; Devries, A. L., “Solute effects on ice recrystallization: An assessment technique,” Cryobiology 1988, 25 (1), 55-60, which is incorporated herein by reference. 100 mM NaLC was not tested due to its gelation. A droplet of the sample was gently squeezed out of a syringe with a 21-gauge needle from Exelint, Redondo Beach, CA, and was dripped from 1.4 m above onto a microscope slide sitting on a metal block surrounded by dry ice. Upon hitting the slide surface, the droplet instantaneously froze into an ice wafer. The ice wafer was immediately transferred into the chamber of a cryostage system from Instec, Boulder, CO, for incubation. Pictures were taken after 30 min incubation at -8° C. by a BX51 polarized microscope from Olympus, Tokyo, Japan, equipped with a DP70 camera from Olympus. PEG was tested as a negative control at concentrations of 5, 10, 20, and 40 mg/mL in 1x PBS to match the mass concentrations (w/v) of bile salts. PVA was tested as a positive control at low concentrations, including 0.05, 0.10, 0.20, and 0.40 mg/mL in 1x PBS, because of its high IRI activity. The largest lengths of the five largest ice crystals in one picture were measured by Image J software from National Institutes of Health, Bethesda, MD. Each sample was performed in triplicate. Each replication had five pictures randomly selected, representing a total of 75 ice crystals for each sample. The percent mean largest grain size (%MLGS) was calculated by averaging three replications divided by the blank. Data are reported as the mean ± standard derivation of three replications. The %MLGS calculations are plotted in FIG. 3 against the concentrations of the bile acids and the controls.

Assay in series [5]: as above
Particulars: concentrations close to or below literature CMC value, PBS (FIG. 6D).

Series [6] is described as follows: Viscosity profile by rheometer / gel formation. Particulars: for viscosity: 25 mM in 1x PBS, 25° C. The format is physicochemical. The procedure:
as §1

With `C[C@H](CCC(=O)[O-])[C@H]1CC[C@H]2[C@@H]3CC[C@@H]4C[C@H](O)CC[C@]4(C)[C@H]3CC[C@]12C.[Na+]` [NaLC, sodium lithocholate], in series [1], the “helical structure by AFM” value is “helical structure”, the helix length amounted to 1.72 ± 0.37 µm, the helix turn was found to be 0.19 ± 0.04 µm and the helix width is reported as 0.14 ± 0.01 µm. The appearance of solution result in series [2] is “turbid”. Besides, the ice growth entry in series [3] (12.5 mM) is on record as “IRI active but did not stop the ice growth completely”. For the same compound, the ice growth result in series [3] (25.0 mM) was “completely stopped the growth of ice crystals; also recorded: block the growth of ice crystals”. The ice growth entry in series [3] (50.0 mM) was “completely stopped the growth of ice crystals”. The “ice crystal size compared to blank 1x PBS and negative control PEG” value in series [4] (10 mg/mL (25 mM), 30 min at -8° C.) was “significantly smaller ice crystals”. In addition, in series [4] (10 mg/mL NaLC, 1x PBS, 30 min at -8° C.), the “ice crystal sizes compared with positive control PVA” value was “comparable to those in the positive control of 1 mg/mL PVA”. For the same compound, the “concentration at which IRI active” value in series [4] (1x PBS, 30 min at -8° C.) is “around 10 mg/mL and ~25 mM”. For the same compound, the IRI activity entry in series [4] (1x PBS) is given as “relatively potent IRI; also recorded: most potent ice recrystallization inhibitor”. For the same compound, the “IRI activity (%MLGS)” value in series [5] is “No IRI activity was observed”. The gel formation entry in series [6] (100 mM, after sample preparation) is listed as “gel was formed”. The viscosity entry in series [6] (fresh-prepared) is “highest viscosity among four bile salts”.

With `C[C@H](CCC(=O)[O-])[C@H]1CC[C@H]2[C@@H]3[C@H](O)C[C@@H]4C[C@H](O)CC[C@]4(C)[C@H]3CC[C@]12C.[Na+]` [NaCC, sodium chenodeoxycholate], in series [2], the “temperature at which ices were formed” value is -15 °C, the liquid crystal phase entry is reported as “no liquid crystal phase was observed” and the appearance of solution entry is reported as “clear”. Also, in series [4] (1x PBS, 30 min at -8° C.), the “%MLGS compared with PEG” value was “smaller %MLGS values than PEG”. The IRI activity result in series [4] (1x PBS) is on record as “weak ice recrystallization inhibitor”.

As for `C[C@H](CCC(=O)[O-])[C@H]1CC[C@H]2[C@@H]3[C@H](O)C[C@@H]4C[C@H](O)CC[C@]4(C)[C@H]3C[C@H](O)[C@]12C.[Na+]` [NaC, sodium cholate], in series [2], the “temperature at which ices were formed” value was -15 °C, the liquid crystal phase result is “no liquid crystal phase was observed” and the appearance of solution result is “clear”. Moreover, in series [4] (1x PBS), the IRI activity entry is “not IRI active”.

Turning to sodium deoxycholate [NaDC], the appearance of solution entry in series [2] is reported as “clear”. Further, the “%MLGS compared with PEG” value in series [4] (1x PBS, 30 min at -8° C.) is listed as “smaller %MLGS values than PEG”. The IRI activity entry in series [4] (1x PBS) is listed as “weak ice recrystallization inhibitors”. Besides, the viscosity entry in series [6] (after 30-min equilibrium) is “increased significantly to a level similar to that of NaLC”.
